Data: the supplement of paper PMC10307832

Key:
Assay in all cases: relative viability (nuclei count vs DMSO), 5 days (fraction); higher = more cells survive
201T = system: 201T
Method in brief: (§1)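 Nuclei were stained with Hoechst during a one-step fixation (final 0.05% Triton X-100, 1% formaldehyde, 1 ug/ml Hoechst) carried out 5 days after dosing, then counted on 4× images. The cells, lung cancer lines in 1536-well plates, had been dosed by pin tool the day after seeding with one drug alone or a fixed anchor-drug dose plus five library-drug doses (not always all listed) in √10 steps. Relative viability is the nuclei count in treated wells divided by that in vehicle wells, and each value is the median of duplicate plates.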

COR-L 105 = system: COR-L 105
Method in brief: as §1

ChaGo-K-1 = system: ChaGo-K-1
Method in brief: as §1

EKVX = system: EKVX
Method in brief: as §1

H3255 = system: H3255
Method in brief: as §1

HARA = system: HARA
Method in brief: as §1

HCC-827 = system: HCC-827
Method in brief: as §1

HOP-62 = system: HOP-62
Method in brief: as §1

LCLC-103H = system: LCLC-103H
Method in brief: as §1

LOU-NH91 = system: LOU-NH91
Method in brief: as §1

NCI-H1975 = system: NCI-H1975
Method in brief: as §1

NCI-H2126 = system: NCI-H2126
Method in brief: as §1

NCI-H2228 = system: NCI-H2228
Method in brief: as §1

NCI-H23 = system: NCI-H23
Method in brief: as §1

NCI-H2405 = system: NCI-H2405
Method in brief: as §1

NCI-H3122 = system: NCI-H3122
Method in brief: as §1

NCI-H596 = system: NCI-H596
Method in brief: as §1

NCI-H650 = system: NCI-H650
Method in brief: as §1

NCI-H661 = system: NCI-H661
Method in brief: as §1

NCI-H727 = system: NCI-H727
Method in brief: as §1

PC-3 [JPC-3] = system: PC-3 [JPC-3]
Method in brief: as §1

SK-LU-1 = system: SK-LU-1
Method in brief: as §1

SW 900 = system: SW 900
Method in brief: as §1

Cc1cn(-c2cc(NC(=O)c3ccc(C)c(Nc4nccc(-c5cccnc5)n4)c3)cc(C(F)(F)F)c2)cn1 [Nilotinib] + COc1cc2c(Oc3ccc(NC(=O)C4(C(=O)Nc5ccc(F)cc5)CC4)cc3F)ccnc2cc1OCCCN1CCOCC1 [Foretinib] (partner 0.25 µM)
relative viability (201T; first compound 0.001 µM): 0.9
relative viability (201T; first compound 0.003162 µM): 1.09
relative viability (201T; first compound 0.01 µM): 1.32
relative viability (201T; first compound 0.03162 µM): 1.01
relative viability (201T; first compound 0.1 µM): 1.14
relative viability (COR-L 105; first compound 0.001 µM): 1.08
relative viability (COR-L 105; first compound 0.01 µM): 1.45
relative viability (COR-L 105; first compound 0.03162 µM): 0.99
relative viability (COR-L 105; first compound 0.1 µM): 0.99
relative viability (ChaGo-K-1; first compound 0.001 µM): 0.799
relative viability (ChaGo-K-1; first compound 0.003162 µM): 1.09
relative viability (ChaGo-K-1; first compound 0.01 µM): 1.03
relative viability (ChaGo-K-1; first compound 0.03162 µM): 0.582
relative viability (ChaGo-K-1; first compound 0.1 µM): 0.756
relative viability (EKVX; first compound 0.001 µM): 0.726
relative viability (EKVX; first compound 0.003162 µM): 1
relative viability (EKVX; first compound 0.01 µM): 1.43
relative viability (EKVX; first compound 0.03162 µM): 0.512
relative viability (EKVX; first compound 0.1 µM): 0.187
relative viability (H3255; first compound 0.001 µM): 0.943
relative viability (H3255; first compound 0.003162 µM): 1.06
relative viability (H3255; first compound 0.03162 µM): 0.845
relative viability (H3255; first compound 0.1 µM): 0.296
relative viability (HARA; first compound 0.001 µM): 0.922
relative viability (HARA; first compound 0.003162 µM): 0.646
relative viability (HARA; first compound 0.01 µM): 0.817
relative viability (HARA; first compound 0.03162 µM): 0.811
relative viability (HARA; first compound 0.1 µM): 0.943
relative viability (HCC-827; first compound 0.003162 µM): 1.13
relative viability (HCC-827; first compound 0.01 µM): 1.06
relative viability (HCC-827; first compound 0.03162 µM): 0.939
relative viability (HCC-827; first compound 0.1 µM): 0.938
relative viability (HOP-62; first compound 0.001 µM): 0.802
relative viability (HOP-62; first compound 0.003162 µM): 1.16
relative viability (HOP-62; first compound 0.01 µM): 1.27
relative viability (HOP-62; first compound 0.03162 µM): 0.831
relative viability (HOP-62; first compound 0.1 µM): 0.771
relative viability (LCLC-103H; first compound 0.001 µM): 0.737
relative viability (LCLC-103H; first compound 0.003162 µM): 0.86
relative viability (LCLC-103H; first compound 0.01 µM): 0.837
relative viability (LCLC-103H; first compound 0.03162 µM): 0.581
relative viability (LCLC-103H; first compound 0.1 µM): 0.67
relative viability (LOU-NH91; first compound 0.001 µM): 0.995
relative viability (LOU-NH91; first compound 0.003162 µM): 0.961
relative viability (LOU-NH91; first compound 0.01 µM): 0.985
relative viability (LOU-NH91; first compound 0.03162 µM): 0.935
relative viability (LOU-NH91; first compound 0.1 µM): 0.92
relative viability (NCI-H1975; first compound 0.001 µM): 0.956
relative viability (NCI-H1975; first compound 0.003162 µM): 1.12
relative viability (NCI-H1975; first compound 0.01 µM): 1.02
relative viability (NCI-H1975; first compound 0.03162 µM): 0.74
relative viability (NCI-H1975; first compound 0.1 µM): 0.957
relative viability (NCI-H2126; first compound 0.001 µM): 1.08
relative viability (NCI-H2126; first compound 0.003162 µM): 1.41
relative viability (NCI-H2126; first compound 0.01 µM): 1.26
relative viability (NCI-H2126; first compound 0.03162 µM): 1.2
relative viability (NCI-H2126; first compound 0.1 µM): 1.08
relative viability (NCI-H2228; first compound 0.003162 µM): 0.99
relative viability (NCI-H2228; first compound 0.01 µM): 1.06
relative viability (NCI-H2228; first compound 0.03162 µM): 0.549
relative viability (NCI-H2228; first compound 0.1 µM): 0.8
relative viability (NCI-H23; first compound 0.001 µM): 1.06
relative viability (NCI-H23; first compound 0.003162 µM): 1.13
relative viability (NCI-H23; first compound 0.01 µM): 1.02
relative viability (NCI-H23; first compound 0.03162 µM): 0.79
relative viability (NCI-H23; first compound 0.1 µM): 0.658
relative viability (NCI-H2405; first compound 0.001 µM): 1.05
relative viability (NCI-H2405; first compound 0.003162 µM): 1.05
relative viability (NCI-H2405; first compound 0.01 µM): 1.03
relative viability (NCI-H2405; first compound 0.03162 µM): 0.956
relative viability (NCI-H2405; first compound 0.1 µM): 0.98
relative viability (NCI-H3122; first compound 0.001 µM): 1.02
relative viability (NCI-H3122; first compound 0.003162 µM): 1.09
relative viability (NCI-H3122; first compound 0.01 µM): 1.08
relative viability (NCI-H3122; first compound 0.03162 µM): 0.929
relative viability (NCI-H3122; first compound 0.1 µM): 0.68
relative viability (NCI-H596; first compound 0.001 µM): 0.732
relative viability (NCI-H596; first compound 0.003162 µM): 0.622
relative viability (NCI-H596; first compound 0.01 µM): 0.729
relative viability (NCI-H596; first compound 0.03162 µM): 0.937
relative viability (NCI-H596; first compound 0.1 µM): 0.601
relative viability (NCI-H650; first compound 0.001 µM): 0.982
relative viability (NCI-H650; first compound 0.003162 µM): 0.999
relative viability (NCI-H650; first compound 0.03162 µM): 0.986
relative viability (NCI-H650; first compound 0.1 µM): 1
relative viability (NCI-H661; first compound 0.001 µM): 1.03
relative viability (NCI-H661; first compound 0.003162 µM): 1.18
relative viability (NCI-H661; first compound 0.03162 µM): 0.919
relative viability (NCI-H661; first compound 0.1 µM): 0.9
relative viability (NCI-H727; first compound 0.003162 µM): 1.16
relative viability (NCI-H727; first compound 0.01 µM): 1
relative viability (NCI-H727; first compound 0.03162 µM): 0.797
relative viability (NCI-H727; first compound 0.1 µM): 0.79
relative viability (PC-3 [JPC-3]; first compound 0.001 µM): 1.03
relative viability (PC-3 [JPC-3]; first compound 0.003162 µM): 1.16
relative viability (PC-3 [JPC-3]; first compound 0.01 µM): 1.25
relative viability (PC-3 [JPC-3]; first compound 0.03162 µM): 0.967
relative viability (PC-3 [JPC-3]; first compound 0.1 µM): 0.863
relative viability (SK-LU-1; first compound 0.001 µM): 0.745
relative viability (SK-LU-1; first compound 0.003162 µM): 0.925
relative viability (SK-LU-1; first compound 0.01 µM): 0.956
relative viability (SK-LU-1; first compound 0.03162 µM): 0.691
relative viability (SK-LU-1; first compound 0.1 µM): 0.666
relative viability (SW 900; first compound 0.001 µM): 0.664
relative viability (SW 900; first compound 0.003162 µM): 0.814
relative viability (SW 900; first compound 0.01 µM): 1.09
relative viability (SW 900; first compound 0.03162 µM): 0.639
relative viability (SW 900; first compound 0.1 µM): 0.902
